Measurements published in paper PMC12881681 (Molecular Pharmacology, 2025).

Columns and labels:
[1] = target: T1, human liver cytosolic AOX1 (Homo sapiens, UniProt Q06278); format: biochemical; parameters: Enzymatic reaction was initiated by adding human liver cytosol (100 μg); tissue Corning, Inc. (Gentest brand) 452115; host or cells: human liver cytosol, pool of 150 donors; conditions: potassium ferricyanide 2 mM, 0 or 6 min preincubation
T1 sequence (Q06278 1-1338): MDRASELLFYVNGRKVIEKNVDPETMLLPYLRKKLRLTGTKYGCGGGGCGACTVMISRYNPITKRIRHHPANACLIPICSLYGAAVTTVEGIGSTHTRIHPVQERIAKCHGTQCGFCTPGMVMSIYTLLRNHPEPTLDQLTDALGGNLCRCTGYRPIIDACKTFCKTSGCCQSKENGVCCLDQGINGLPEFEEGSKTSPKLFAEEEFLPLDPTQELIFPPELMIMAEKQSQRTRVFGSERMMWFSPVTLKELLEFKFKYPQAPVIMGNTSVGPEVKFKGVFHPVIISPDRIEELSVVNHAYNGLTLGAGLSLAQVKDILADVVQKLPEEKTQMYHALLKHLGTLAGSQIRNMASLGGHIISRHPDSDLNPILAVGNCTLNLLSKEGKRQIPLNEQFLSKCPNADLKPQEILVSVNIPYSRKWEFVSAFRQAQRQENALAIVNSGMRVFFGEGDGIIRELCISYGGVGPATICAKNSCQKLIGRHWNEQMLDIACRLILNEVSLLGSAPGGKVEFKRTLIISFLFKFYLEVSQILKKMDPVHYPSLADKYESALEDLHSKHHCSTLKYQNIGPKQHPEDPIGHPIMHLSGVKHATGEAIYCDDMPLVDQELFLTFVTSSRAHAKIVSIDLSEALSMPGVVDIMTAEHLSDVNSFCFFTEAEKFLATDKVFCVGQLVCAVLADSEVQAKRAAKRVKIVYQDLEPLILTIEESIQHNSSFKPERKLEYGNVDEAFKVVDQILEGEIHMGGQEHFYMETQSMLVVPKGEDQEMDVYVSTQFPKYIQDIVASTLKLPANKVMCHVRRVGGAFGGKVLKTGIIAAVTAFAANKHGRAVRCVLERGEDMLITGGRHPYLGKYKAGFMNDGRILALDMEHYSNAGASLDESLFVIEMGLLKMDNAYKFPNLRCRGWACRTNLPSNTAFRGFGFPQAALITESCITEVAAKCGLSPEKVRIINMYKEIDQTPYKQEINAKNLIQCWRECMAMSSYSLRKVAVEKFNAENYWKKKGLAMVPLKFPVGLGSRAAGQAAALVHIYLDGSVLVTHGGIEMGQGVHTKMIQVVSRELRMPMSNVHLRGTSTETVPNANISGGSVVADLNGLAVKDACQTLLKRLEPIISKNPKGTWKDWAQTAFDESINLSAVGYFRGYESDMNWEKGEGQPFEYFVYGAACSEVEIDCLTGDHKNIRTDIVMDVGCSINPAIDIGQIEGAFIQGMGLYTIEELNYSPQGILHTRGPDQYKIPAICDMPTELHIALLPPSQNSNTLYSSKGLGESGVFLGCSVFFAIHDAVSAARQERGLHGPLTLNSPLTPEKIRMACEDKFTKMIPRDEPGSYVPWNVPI
Experimental: The residual AOX1 enzyme activity was determined by the carbazeran 4-oxidation assay.
A test chemical at a concentration described above was incubated with human liver cytosol (100 μg protein) at 37 °C for 0 or 6 minutes. […] After 10-minute incubation, an aliquot (50 μL) of the […] (total volume of 200 μL) containing potassium phosphate buffer and carbazeran (15 μM), which yielded a 4-fold dilution of the secondary incubation mixture. The residual AOX1 enzyme activity was determined as described above.

[2] = target: T1, human liver cytosolic AOX1; test: Partition ratio determination (titration, human liver cytosol); format: biochemical; parameters: Enzymatic reaction was initiated by adding human liver cytosol (100 μg); tissue Corning, Inc. (Gentest brand) 452115; host or cells: human liver cytosol, pool of 150 donors; conditions: for partition ratio, fold greater than erlotinib / turnover number and partition ratio, fold greater than erlotinib: Table 1 values; for Turnover Number: human liver cytosol; for Partition Ratio: turnover number minus 1
Experimental: The enzyme kinetic experiments were conducted as described above. The incubation was allowed to proceed until saturation of enzyme has been reached (6 or 18 minutes, as specified in each figure legend). Carbazeran 4-oxidation was plotted against the ratio of inactivator concentration to AOX1 protein concentration in the incubation mixture of 200 μL. The specific lot of human liver cytosol (#38292) used in this study contained 1.05 ± 0.01 pmol/μL (mean ± SD) of AOX1 protein, as assessed by capillary nanoproteomic immunoassay.[27] The turnover number was the extrapolation of the intercept of the 2 linear regression lines to the x-axis, which was determined by solving the 2 linear regression equations. The partition ratio was calculated by subtracting the turnover number by 1, assuming 1:1 stoichiometry between the inactivator and the enzyme.[29]

[3] = Rapid equilibrium dialysis, nonspecific binding to human liver cytosol
Experimental: Nonspecific binding of test chemicals to human liver cytosol (100 μg) was determined using a Rapid Equilibrium Dialysis Kit (Thermo Fisher Scientific), as described in detail in our previous publication.[27]
MOLPHA- D-25- 00208 Supplemental Materials. Kweh et al. Mol Pharmacol […]
inhibition constants (Ki,u ) for the inhibition of human liver cytosolic carbazeran 4-oxidation A mixture containing a test chemical (10 µM; dissolved in a final concentration of 0.5% v/v DMSO) and human liver cytosol (100 µg total cytosolic protein) were dialyzed as described under Materials and Methods. Chemical concentr ation in each chamber wa s quantified by UPLC-MS/MS. Data are exp ressed as mean ± S.D. of three independent experiments. […]
a, K I,u = f u × K I, where fu was calcul ated from 10 µ M of chemicals in human liver cytosol.

[4] = 10 μM, human liver cytosol 100 μg protein, 4-hour dialysis

SMILES	effect of coincubation or postincubation with potassium ferricyanide on AOX1 inactivation [1]	partition ratio, fold greater than erlotinib [2] [fold]	Turnover Number [2]	Partition Ratio [2]	Fraction Unbound (fu) ([3]; human, cytosol)	turnover number and partition ratio, fold greater than erlotinib [2] [fold]	Turnover Number ([2]; listed as 3-vinylerlotinib)	Partition Ratio ([2]; listed as 3-vinylerlotinib)	fraction unbound at 4 h, 10 μM ([3]; human, human liver cytosol)	Fraction Unbound (fu) [3, 4]
C#Cc1cccc(Nc2nc(C)nc3cc(OCCOC)c(OCCOC)cc23)c1 [2-Methylerlotinib, 2-methylerlotinib]	not increased or decreased	1.9	49.9 ± 1.40	48.9 ± 1.40	0.51 ± 0.07					
C=Cc1cccc(Nc2ncnc3cc(OCCOC)c(OCCOC)cc23)c1 [3-Vinylerlotinib, 3-vinylerlotinib]	not increased or decreased	10	271 ± 23.5∗∗∗	270 ± 23.5∗∗∗	0.78 ± 0.04	10	271	270		
C#Cc1cc(Nc2ncnc3cc(OCCOC)c(OCCOC)cc23)ccc1C [4′-Methylerlotinib, 4′-methylerlotinib]	not increased or decreased		42.9 ± 4.32	41.9 ± 4.32	0.73 ± 0.05	1.6				
C#Cc1cccc(Nc2ncnc3cc(OCCOC)c(OCCOC)cc23)c1 [Erlotinib]	not increased or decreased		26.9 ± 1.30						0.56	
C#Cc1cccc(Nc2ncnc3cc(OCCOC)c(OCCO)cc23)c1 [O-Desmethylerlotinib, O-desmethylerlotinib]	not increased or decreased		35.2 ± 4.78	34.2 ± 4.78						0.84
C#Cc1cccc(Nc2ncnc3cc(OCCO)c(OCCO)cc23)c1 [O-Didesmethylerlotinib, O-didesmethylerlotinib]	not increased or decreased		24.6 ± 1.29	23.6 ± 1.29						0.84
